The text below walks through data of US20250108050A1, “COMBINATION OF EGFR INHIBITOR AND MEK INHIBITOR FOR USE IN THE TREATMENT OF NRAS MUTATED CANCER” (ASTRAZENECA AB, priority 2014, published 2025).

Data set [1] concerns PC9 cells. Kind of data set: Growth inhibition of PC9 cells over expressing E63K mutant NRAS (sytox green). The class given is cell-based, human. As to conditions: 100 nM AZD9291 or 300 nM gefitinib, 96 hours, vs control construct.
Description: PC9 cells were transfected with control DNA construct, pcDNA 3.1+ control, or a construct designed to express E63K mutant NRAS, pcDNA 3.1+/NRAS E63K, (Life Technologies Ltd.). For 96 hour expression MaxCyte transfection technology was used to electroporate the PC9 cells. PC9 cells were passaged the day before the transfection. On the day of the transfection cells were harvested and resuspended at 9×10^7 cells per 600 μL MaxCyte buffer. 100 μL of cell suspension was transferred to a MaxCyte cuvette and the cells electroporated with 20 μg DNA construct. Following electroporation the cells for each condition were transferred to a 6 well plate and incubated at 37° C. for 30 minutes after which they were seeded in a 6 well plate at 4×10^5 cells per well. Following over night incubation the cells were harvested and replated in 384 well plate at 1000 cells/well. […] A live cell number was determined using the sytox green method as described hereinbefore.
Data set [2] has as its system active NRAS. Kind of data set: RAS activation assay (GST-RAS binding domain pull down, western blot) in resistant PC-9 cells with E63K or G12V NRAS. The class given is cell-based, human. As to conditions: mutant NRAS (E63K or G12V) resistant PC-9 cells; 160 nM for 2 hours. The method, then:
(§1) PC9 and PC9 AZD9291 resistant cells were cultured in media containing no AZD9291 for 4 days. Cells were then plated into 6 well plates and serum starved overnight. The following day the cells were treated for 2 hours with media supplemented with or without 160 nM AZD9291. Lysates were prepared and active NRAS isolated using a GST-RAS binding domain pull down assay (Thermo Scientific). Pull down lysates were analysed by western blot using an NRAS specific antibody.
On the technique in general: A western blot detects proteins with antibodies after separation by electrophoresis.

In data set [3] the test system is active NRAS. Kind of data set: RAS activation assay (GST-RAS binding domain pull down, western blot) in parental PC-9 cells. The class given is cell-based, human. The following applies: 160 nM for 2 hours. How it is done: as §1
Data set [4] relates to PC9 cells. Kind of data set: cells. The following applies: Homo sapiens, PC-9, read-out: concentration required to inhibit growth of PC9 cells by 50% (EC50). How it is done:
PC9 cells were seeded at 5×10^5 cells in multiple fresh T75 flasks in growth media and incubated at 37° C., 5% CO2.

The subject of the next data set is PC9_9291R_3 (NRAS G12V). Kind of data set: Sytox Green live cell number assay, selumetinib titration. It is filed as cell-based. The following applies: Homo sapiens, with originating EGFR inhibitor, 72 hours. How it is done: (§2) The effects of a panel of canonical pathway inhibitors on cell growth and survival was measured using a cell assay using Sytox Green staining as an end point.
(§3) Cell lines were plated in 384 well plates at 1000 cells per well in 70 μL per well of RPMI media containing 10% foetal calf serum, 2 mM L-glutamine and originating EGFR inhibitor.
(§4) The cells were allowed to attach overnight at 37° C., 5% CO2. The following day titrations of test compound were added to the assay plates using an Echo Liquid Handler Labcyte (California, USA) and the treated cells incubated for a further 72 hours at 37° C., 5% CO2. Each compound was tested as an 11 point dose response with a top concentration of 10 μM and 1 in 3 dilutions. Following 72 hours incubation of the compound treated plates, 5 μL of 2 μM SYTOX Green Nucleic Acid Stain, Life Technologies (Paisley, UK) was added per well and the plates incubated at room temperature for one hour. The number of fluorescent cells per well was measured on the Acumen TTP LabTech Ltd. (Melbourn, UK) this number representing the dead cell count. 10 μL of 0.25% Saponin Sigma (Dorset, UK) was added per well and the plates incubated over night at room temperature. The total number of fluorescent cells per well was acquired on the Acumen. The number of dead cells was subtracted from the total number of cells and the live cell number plotted to determine EC50 values from dose response curves.

Data set [5] deals with PC9_afatinib_5 (NRAS gain). The description is as above. The class given is cell-based. As to conditions: Homo sapiens, with originating EGFR inhibitor, 72 hours. How it is done:
as §2, §3, §4

The next data set deals with PC9_IRLR (NRAS E63K). The data set is described as above. The class given is cell-based. As to conditions: Homo sapiens, with originating EGFR inhibitor, 72 hours. How it is done:
as §2, §3, §4

A further data set deals with PC9_IRGM (NRAS WT). Described as above. The following applies: Homo sapiens, with originating EGFR inhibitor, 72 hours. It is filed as cell-based. The method, then:
as §2, §3, §4

For data set [6], the system named is PC9_IR4_9291R_2 (NRAS WT gain). Described as above. The class given is cell-based. As to conditions: Homo sapiens, with originating EGFR inhibitor, 72 hours. The method, then: as §2, §3, §4
The subject of data set [7] is PC9_IR4_9291R_3 (NRAS WT gain). The data set is described as above. The following applies: Homo sapiens, with originating EGFR inhibitor, 72 hours. The class given is cell-based. How it is done:
as §2, §3, §4

Data set [8] deals with PC9_9291R_LOB1 (NRAS E63K). Described as above. The class given is cell-based. As to conditions: Homo sapiens, with originating EGFR inhibitor, 72 hours. How it is done:
as §2, §3, §4

Another data set deals with PC9 (NRAS WT). Described as above. It is filed as cell-based. As to conditions: Homo sapiens, PC9 (NRAS WT) parental, 72 hours. How it is done: as §2, §3, §4
The subject of data set [9] is PC9_9291R_LOB3 (NRAS G12R). The description is as above. The class given is cell-based, human. The method, then: as §2, §3
as §4, with “The total number of fluorescent cells per well was acquired on the Acumen. The number of dead cells was subtracted from the total number of cells and the live cell number plotted to determine EC50 values from dose response curves.” left out
An AZD9291-resistant PC9 cell line was prepared using standard methods as illustrated hereinbefore. A range of such resistant cell populations were cultured and analysed.

The subject of the next data set is NRAS. Nature of the data set: siRNA knockdown, western blot of NRAS expression. As to conditions: 20 nM siRNA, 48 hours; PC9, PC9 gefitinib-resistant and PC9 AZD9291-resistant cells. The class given is cell-based, human. The method, then:
(§5) PC9, PC9 gefitinib-resistant and PC9 AZD9291-resistant cells were plated at 5×10^5 cells per well in 6 well plates in 2 mls per well of growth media supplemented with EGFR inhibitor where appropriate (resistant cells were grown in the presence of EGFR inhibitor). The cells were incubated over night at 37° C., 5% CO2. The following day the cells were treated with a final concentration of 20 nM of siRNA from Dharmacon as detailed in Table 7.
(§6) Each siRNA construct was prepared in Optimem (Life Technologies) media using RNA iMAX (Invitrogen) as transfection reagent. For each well: 2.5 μl of siRNA (20 μM stock) was mixed with 250 μL of Optimem; and 2.5 μL of RNA iMAX was mixed with 250 μL of Optimem. The 2 solutions were mixed together by pipetting and allowed to stand for 5 minutes at room temperature. The final 500 μL solution was then pipetted into the appropriate 2 mL of growth media in the 6 well plates. The plates were swirled gently and further incubated over night at 37° C., 5% CO2. The following day each well of cells was harvested and the cell number counted.
(§7) The following day, lysates were prepared from the 6 well plates so that knockdown of protein expression could be assessed following 48 hours treatment with siRNA. The lysates were analysed by western blot for levels of: phosphorylated EGFR, phosphorylated ERK, NRAS and KRAS. […]

The test system of the next data set is KRAS. Nature of the data set: siRNA knockdown, western blot of KRAS expression. It is filed as cell-based, human. As to conditions: 20 nM siRNA, 48 hours; PC9, PC9 gefitinib-resistant and PC9 AZD9291-resistant cells. The method, then: as §5, §6, §7

For `C=CC(=O)Nc1cc(Nc2nccc(-c3cn(C)c4ccccc34)n2)c(OC)cc1N(C)CCN(C)C` [AZD9291, N-(2-{2-dimethylaminoethyl-methylamino}-4-methoxy-5-{[4-(1-methylindol-3-yl)pyrimidin-2-yl]amino}phenyl)prop-2-enamide], the “cell growth inhibition when cells over expressed E63K mutant NRAS” value in the data set with PC9 cells [1] is “reduced”. Further, in the data set with active NRAS [2], the “active NRAS” value was “not associated with corresponding decrease in active NRAS” and the “phosphorylated EGFR” value is “decrease”. Moreover, in the data set on active NRAS [3], the “active NRAS” value is on record as “decrease” and the “phosphorylated EGFR” value is given as “decrease”. Moreover, the EC50 with PC9 cells [4] was determined as 10 nM.

With `Cn1cnc2c(F)c(Nc3ccc(Br)cc3Cl)c(C(=O)NOCCO)cc21` [Selumetinib, 5-[(4-bromo-2-chlorophenyl)amino]-4-fluoro-N-(2-hydroxyethoxy)-1-methyl-1H-benzimidazole-6-carboxamide], the EC50 in the data set on PC9_9291R_3 (NRAS G12V) turned out to be 1400 nM; in [5] it was 890 nM; in the data set on PC9_IRLR (NRAS E63K), 620 nM; in the data set with PC9_IRGM (NRAS WT) it was 7240 nM; in [6], 540 nM; in data set [7] it was 130 nM. In addition, the EC50 in data set [8] worked out at 167 nM; in the data set with PC9 (NRAS WT), 6950 nM; in data set [9] (Homo sapiens, PC9_9291R_LOB3 (NRAS G12R), with originating EGFR inhibitor, 72 hours), 140 nM. Further, the “increased sensitivity as compared to the parental cell line” value in [9] (AZD9291-resistant PC9 population with NRAS G12R vs parental cell line) is given as greater than 5 fold.

On to “KRAS_1: siRNA from Dharmacon, J-005069-10, sequence GAAGUUAUGGAAUUCCUUU, SEQ ID NO: 16 (listed as RNA, chemistry not given here; listed as Homo sapiens)”, for which the “NRAS expression (western blot)” value with NRAS was “no affect”. For the same compound, the “KRAS expression (western blot)” value with KRAS is “knockdown”.
